Reference: US20220289794A1, “SYNTHETIC ANTIMICROBIAL PEPTIDES” (priority 2019, published 2022)
Values after ≈ are worked out from the molar mass of the structure shown. Like-named read-outs stand apart in the source and are kept apart here. Non-standard residues stand in square brackets, D forms with d. Residues, ends and D or L forms follow the SMILES beside them. Dip = N[C@H](C(=O)O)C(c1ccccc1)c1ccccc1; d2Nal = N[C@H](Cc1ccc2ccccc2c1)C(=O)O

Tests used:
[1] = tested on: Pseudomonas aeruginosa (ATCC 27883)
[2] = tested on: Methicillin-resistant Staphylococcus aureus MRSA (ATCC BAA-1556)
[3] = tested on: P. aeruginosa (ATCC BAA-1744); assay: Broad-spectrum activity against Gram-Negative bacteria (MIC); type: cell-based; details: Table 16, Gram-negative panel
[4] = tested on: Enterococcus faecalis ATCC 51575; details: E. faecalis ATCC 51575
[5] = tested on: Streptococcus pneumoniae ATCC 51938; details: S. pneumoniae ATCC 51938
[6] = tested on: Enterococcus faecium ATCC 27270; details: E. faecium ATCC 27270
[7] = tested on: Klebsiella pneumoniae ATCC 13883; details: Table 16, Gram-negative panel
[8] = tested on: A. baumannii (ATCC BAA-1605); assay: Broad-spectrum activity against Gram-Negative bacteria (MIC); type: cell-based; details: Table 16, Gram-negative panel
[9] = tested on: Klebsiella pneumoniae (ATCC BAA-1705); details: Table 16, Gram-negative panel
[10] = tested on: Enterococcus faecium ATCC 700221; details: E. faecium ATCC 700221
B. subtilis (ATCC-6633) = assay: Broad-spectrum activity against Gram-Positive bacteria (MIC); type: cell-based; set-up: unit not given here
E. coli (ATCC BAA-2452) = assay: Broad-spectrum activity against Gram-Negative bacteria (MIC); type: cell-based; details: Table 16, Gram-negative panel
[11] = tested on: P. aeruginosa (ATCC 10145); assay: as above; type: cell-based; details: Table 16, Gram-negative panel
[12] = tested on: Streptococcus pneumoniae ATCC 49619; details: S. pneumoniae ATCC 49619
[13] = tested on: Enterococcus faecalis ATCC 29212; details: E. faecalis ATCC 29212
[14] = tested on: Escherichia coli (ATCC 25922)
B. cereus (ATCC-13061) = assay: Broad-spectrum activity against Gram-Positive bacteria (MIC); type: cell-based; set-up: unit not given here
human red blood cells = tested on: human red blood cells; set-up: unit not given beside the values
in vitro = details: human, fresh human red blood cells (washed), pH 7.4

Molecule | MIC P. aeruginosa ATCC 27883 ([1]; P. aeruginosa ATCC 27883) | MIC MRSA ATCC BAA-1556 ([2]; MRSA ATCC BAA-1556) | MIC P. aeruginosa (ATCC BAA-1744) [3] | Broad-spectrum activity E. faecalis (ATCC 51575) [4] | Broad-spectrum activity S. pneumoniae (ATCC 51938) [5] | MIC S. aureus ATCC 29213 (S. aureus ATCC 29213; S. aureus ATCC 29213) | Broad-spectrum activity E. faecium (ATCC 27270) [6] | MIC K. pneumonia (ATCC 13883) [7] | MIC A. baumannii (ATCC BAA-1605) [8] | MIC K. pneumonia (ATCC BAA-1705) [9] | Broad-spectrum activity E. faecium (ATCC 700221) [10] | Broad-spectrum activity B. subtilis (ATCC-6633) (B. subtilis (ATCC-6633)) | MIC E. coli (ATCC BAA-2452) (E. coli (ATCC BAA-2452)) | MIC P. aeruginosa (ATCC 10145) [11] | Broad-spectrum activity S. pneumoniae (ATCC 49619) [12] | Broad-spectrum activity E. faecalis (ATCC 29212) [13] | MIC E. coli ATCC 25922 ([14]; E. coli ATCC 25922) | Broad-spectrum activity B. cereus (ATCC-13061) (B. cereus (ATCC-13061)) | MIC P. aeruginosa ATCC 27883 ([1]; ATCC 27883) | MIC MRSA ATCC BAA-1556 ([2]; ATCC BAA-1556) | further results
c[Arg-Arg-Arg-arg-Dip-Dip-Dip] [IFX-063] | 12.5 µg/mL | 3.1 µg/mL | 25 µg/mL | 12.5 | 12.5 | 3.1 µg/mL | 3.1 | 50 µg/mL | 6.2 µg/mL | 12.5 µg/mL | 1.5 | 1.5 | 12.5 µg/mL | 25 µg/mL | 25 | 6.2 | 12.5 µg/mL | 3.1 | – | – | –
c[Arg-Arg-Arg-Arg-dip-Trp-dip] [IFX-098] | 12.5 µg/mL | 1.5 µg/mL | 25 µg/mL | 12.5 | 25 | 3.1 µg/mL | 3.1 | 50 µg/mL | 12.5 µg/mL | 25 µg/mL | 6.2 | 1.5 | 25 µg/mL | 25 µg/mL | 50 | 6.2 | 12.5 µg/mL | 3.1 | – | – | –
c[Arg-Arg-Arg-Arg-naI-trp-naI] [IFX-143] | 64 µg/mL | 3.1 µg/mL | 25 µg/mL | 12.5 | 12.5 | 1.5 µg/mL | 3.1 | > 50 µg/mL | 12.5 µg/mL | 25 µg/mL | 3.1 | 3.1 | 25 µg/mL | 50 µg/mL | 50 | 6.2 | 16 µg/mL | 6.2 | – | – | –
c[Arg-Arg-Arg-Arg-dip-Trp-Dip] [IFX-090] | 12.5 µg/mL | 3.1 µg/mL | 25 µg/mL | 12.5 | 12.5 | 3.1 µg/mL | 3.1 | 50 µg/mL | 12.5 µg/mL | 25 µg/mL | 6.2 | 1.5 | 12.5 µg/mL | 25 µg/mL | 25 | 6.2 | 12.5 µg/mL | 6.2 | – | – | –
c[arg-arg-Arg-Arg-naI-trp-naI] [IFX-138] | 32 µg/mL | 3.1 µg/mL | 50 µg/mL | 6.2 | 25 | 1.5 µg/mL | 3.1 | 50 µg/mL | 25 µg/mL | 50 µg/mL | 6.2 | 3.1 | 12.5 µg/mL | 50 µg/mL | 50 | 6.2 | 16 µg/mL | 6.2 | – | – | –
c[Arg-Arg-Arg-Arg-dip-trp-dip] [IFX-100] | 12.5 µg/mL | 1.5 µg/mL | 25 µg/mL | 12.5 | 12.5 | 1.5 µg/mL | 3.1 | > 50 µg/mL | 12.5 µg/mL | 25 µg/mL | 6.2 | 1.5 | 25 µg/mL | 50 µg/mL | 25 | 6.2 | 12.5 µg/mL | 3.1 | – | – | –
N=C(N)NCCC[C@@H]1NC(=O)[C@H](CCCNC(=N)N)NC(=O)[C@H](C(c2ccccc2)c2ccccc2)NC(=O)[C@H](C(c2ccccc2)c2ccccc2)NC(=O)[C@H](CCCNC(=N)N)NC(=O)[C@H](CCCNC(=N)N)NC(=O)[C@H](C(c2ccccc2)c2ccccc2)NC1=O [IFX-017, c[Arg-Arg-Dip-Dip-Arg-Arg-Dip]] (cyclo(R[Dip]RR[Dip][Dip]R)) | – | – | 25 µg/mL (≈ 19.3 µM) | – | 12.5 | – | 3.1 | 50 µg/mL (≈ 38.6 µM) | 12.5 µg/mL (≈ 9.66 µM) | 25 µg/mL (≈ 19.3 µM) | 1.5 | 1.5 | 12.5 µg/mL (≈ 9.66 µM) | 25 µg/mL (≈ 19.3 µM) | 50 | 12.5 | – | 6.2 | >100 µg/mL | 12.5 µg/mL (≈ 9.66 µM) | MIC S. aureus ATCC 29213 (S. aureus ATCC 29213; ATCC 29213): 6.2 µg/mL (≈ 4.79 µM); HC50 (human red blood cells): 290; MIC E. coli ATCC 25922 ([14]; ATCC 25922): >100 µg/mL
c[arg-Arg-Arg-Arg-Dip-Trp-Dip] [IFX-094] | 6.2 µg/mL | 3.1 µg/mL | 25 µg/mL | 12.5 | 25 | 3.1 µg/mL | 6.2 | 50 µg/mL | 12.5 µg/mL | 12.5 µg/mL | 12.5 | 3.1 | 12.5 µg/mL | 50 µg/mL | 25 | 12.5 | 12.5 µg/mL | 6.2 | – | – | –
N=C(N)NCCC[C@H]1NC(=O)[C@@H](CCCNC(=N)N)NC(=O)[C@@H](CCCNC(=N)N)NC(=O)[C@@H](Cc2ccc3ccccc3c2)NC(=O)[C@@H](Cc2ccc3ccccc3c2)NC(=O)[C@@H](Cc2c[nH]c3ccccc23)NC(=O)[C@@H](CCCNC(=N)N)NC(=O)[C@@H](CCCNC(=N)N)NC1=O [IFX-124, c[arg-arg-arg-arg-arg-trp-naI-naI]] (cyclo([d2Nal][d2Nal][dR][dR][dR][dR][dR][dW])) | – | – | – | – | – | – | – | – | – | – | – | – | – | – | – | – | – | – | 16 µg/mL (≈ 11.8 µM) | 3.1 µg/mL (≈ 2.28 µM) | MIC S. aureus ATCC 29213 (S. aureus ATCC 29213; ATCC 29213): 3.1 µg/mL (≈ 2.28 µM); HC50 at 0.5 h (in vitro): 410 µg/mL; MIC E. coli ATCC 25922 ([14]; ATCC 25922): 16 µg/mL (≈ 11.8 µM)
N=C(N)NCCC[C@H]1NC(=O)[C@@H](CCCNC(=N)N)NC(=O)[C@@H](CCCNC(=N)N)NC(=O)[C@@H](Cc2ccc3ccccc3c2)NC(=O)[C@@H](Cc2ccc3ccccc3c2)NC(=O)[C@@H](Cc2c[nH]c3ccccc23)NC(=O)[C@@H](CCCNC(=N)N)NC1=O [IFX-115, c[arg-arg-arg-arg-trp-naI-naI]] (cyclo([dR][dR][dR][dR][dW][d2Nal][d2Nal])) | – | – | – | – | – | – | – | – | – | – | – | – | – | – | – | – | – | – | 25 µg/mL (≈ 20.7 µM) | 3.1 µg/mL (≈ 2.57 µM) | MIC S. aureus ATCC 29213 (S. aureus ATCC 29213; ATCC 29213): 3.1 µg/mL (≈ 2.57 µM); HC50 at 0.5 h (in vitro): 360 µg/mL; MIC E. coli ATCC 25922 ([14]; ATCC 25922): 12.5 µg/mL (≈ 10.4 µM)
